Experiments:
[1] = target: fibrillar AP aggregates (Homo sapiens, UniProt P05067); conditions: Mathis et al. 1997; read-out: inhibition constants (K′) for binding to fibrillar AP aggregates; cited from earlier work
[2] = target: T1, aggregates of Aβ(1-42) (Homo sapiens, UniProt P05067); experiment: Inhibition of [125I]3 binding to aggregated Aβ(1-42) peptide in solution; conditions: 25° C.; mean±SEM of three independent experiments; read-out: Inhibition constants (Ki) on ligand binding to aggregates of Aβ(1-42) vs [^125I]3
T1 construct: The solid forms of peptides Aβ(1-40) and Aβ(1-42) were purchased; purchased Bachem (King of Prussia, Pa.)
Method: (§1) The solid forms of peptides Aβ(1-40) and Aβ(1-42) were purchased from Bachem (King of Prussia, Pa.). Aggregation of peptides were carried out by gently dissolving the peptide [0.5 mg/mL for Aβ(1-40) and 0.25 mg/mL for Aβ (1-42) in a buffer solution (pH 7.4) containing 10 mM sodium phosphate and 1 mM EDTA. The solutions were incubated at 37° C. for 36-42 h with gentle and constant shaking. Binding studies were carried out in 12×75 mm borosilicate glass tubes according to the procedure described with some modifications (Klunk, W. E., et al., Biol. Psychiatry 35:627 (1994)). Aggregated fibrils (10-50 nM in the final assay mixture) were added to the mixture containing […] of radioligands (0.01-0.5 nM) in 40% EtOH and 10% EtOH in a final volume of 1 mL for saturation studies. […] For inhibition studies, 1 mL of the reaction mixture contained […] of inhibitors (10-5-10-10 M in 10% EtOH) and 0.05 nM radiotracer in 40% EtOH. The mixture was incubated at room temperature for 3 h and the bound and the free radioactivity were separated by vacuum filtration through Whatman GF/B filters using a Brandel M-24R cell harvester followed by 2×3 mL washes of 10% ethanol at room temperature. Filters containing the bound I-125 ligand were counted in a gamma counter (Packard 5000) with 70% counting efficiency. The results of saturation and inhibition experiments were subjected to nonlinear regression analysis using software EBDA52 by which Kd and Ki values were calculated.
(§2) Values are the mean±SEM of three independent experiments, each in duplicates.

[3] = target: T2, aggregates of Aβ(1-40) (Homo sapiens, UniProt P05067); experiment: Inhibition of [125I]3 binding to aggregated Aβ(1-40) peptide in solution; conditions: 25° C.; mean±SEM of three independent experiments; read-out: Inhibition constants (Ki) on ligand binding to aggregates of Aβ(1-40) vs [^125I]3
T2 construct: The solid forms of peptides Aβ(1-40) and Aβ(1-42) were purchased; purchased Bachem (King of Prussia, Pa.)
Method: as §1, §2

[4] = In vivo biodistribution in normal mice after iv injection; set-up: species or system ICR mice; conditions: for Initial brain uptake / time at which brain uptake peaked / maximum brain uptake: mice; for Initial brain uptake: after an iv injection; for time at which brain uptake peaked / maximum brain uptake / Blood / Brain / Heart / Liver: iv; for maximum brain uptake: peak at 60 min; for Blood / Brain / Heart / Liver: normal mice
Method: While under ether anesthesia, 0.15 mL of a saline solution containing labeled agents ([…]) was injected directly into the tail vein of ICR mice (2-3 month-old, average weight 20-30 g). The mice were sacrificed by cardiac excision at various time points post injection. The organs of interest were removed and weighed, and the radioactivity was counted with an automatic gamma counter (Packard 5000). The percentage dose per organ was calculated by a comparison of the tissue counts to suitably diluted aliquots of the injected material. Total activities of blood and muscle were calculated under the assumption that they were 7% and 40% of the total body weight, respectively.

[5] = Partition coefficient determination (1-octanol/buffer); format: physicochemical; conditions: 1-octanol / 0.1 M phosphate buffer pH 7.4, [125I]tracer
Method: The test tube was vortexed for 3 min at room temperature, followed by centrifugation for 5 min. Two weighed samples (0.5 g each) from the 1-octanol and buffer layers were counted in a well counter. The partition coefficient was determined by calculating the ratio of cpm/g of 1-octanol to that of buffer. Samples from the 1-octanol layer were re-partitioned until consistent partitions of coefficient values were obtained. The measurement was done in triplicate and repeated three times.

T1 sequence (P05067 672-713 limits assumed): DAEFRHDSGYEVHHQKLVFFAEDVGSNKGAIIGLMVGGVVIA
T2 sequence (P05067 672-711 limits assumed): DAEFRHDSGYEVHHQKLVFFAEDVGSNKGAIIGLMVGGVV
Sequence of fibrillar AP aggregates (P05067 672-711): as the sequence (P05067 672-711 limits assumed) above

O=C(O)c1cc(/N=N/c2ccc(-c3ccc(/N=N/c4ccc(O)c(C(=O)O)c4)cc3)cc2)ccc1O [Chrysamine G, reference compound]
Ki [1]: 370 nM
Ki [2]: > 2000 nM
Ki [3]: > 1000 nM

CN1CCN(c2ccc(-c3nc4ccc(I)cc4s3)cc2)CC1 [Compound 6a, 2-[4′-(4″-Methylpiperazin-1-yl)-phenyl]-6-iodobenzothiazole]
Ki [2]: 6.4 ± 0.7 nM
Initial brain uptake [4]: 1.50 % dose/organ
time at which brain uptake peaked [4]: 60 min
maximum brain uptake [4]: 1.89 % dose/organ
Partition Coefficient (PC) [5]: 312
Ki [3]: 5.4 ± 0.7 nM

CN(C)c1ccc(-c2nc3ccc(I)cc3s2)cc1 [Compound 3, 2-(4′-Dimethylaminophenyl)-6-iodobenzothiazole]
Ki [2]: 2.2 ± 0.4 nM
Initial brain uptake [4]: 0.67 % dose/organ
time at which brain uptake peaked [4]: 60 min
maximum brain uptake [4]: 1.57 % dose/organ
Partition Coefficient (PC) [5]: 70
Ki [3]: 0.9 ± 0.2 nM

CN1CCN(c2ccc(-c3nc4ccc(Br)cc4s3)cc2)CC1 [Compound 4, 2-[4′-(4″-Methylpiperazin-1-yl)-phenyl]-6-bromobenzothiazole]
Ki [2]: 5 ± 0.8 nM
Ki [3]: 1.6 ± 0.5 nM

CN1CCN(c2ccc(-c3nc4ccc([125I])cc4s3)cc2)CC1 [[^125I] Compound 6a]
Blood ([4]; 2 min): 8.02 ± 0.82 % dose/organ
Brain ([4]; 2 min): 1.50 ± 0.10 % dose/organ
Heart ([4]; 2 min): 2.19 ± 0.43 % dose/organ
Liver ([4]; 2 min): 28.84 ± 3.77 % dose/organ
Blood ([4]; 30 min): 5.15 ± 0.23 % dose/organ
Brain ([4]; 30 min): 1.59 ± 0.19 % dose/organ
Heart ([4]; 30 min): 0.69 ± 0.02 % dose/organ
Liver ([4]; 30 min): 21.22 ± 5.86 % dose/organ
Blood ([4]; 60 min (1 hr)): 4.16 ± 0.28 % dose/organ
Brain ([4]; 60 min (1 hr)): 1.89 ± 0.43 % dose/organ
Heart ([4]; 60 min (1 hr)): 0.66 ± 0.06 % dose/organ
Liver ([4]; 60 min (1 hr)): 17.20 ± 2.49 % dose/organ
Blood ([4]; 6 h): 1.49 ± 0.26 % dose/organ
Brain ([4]; 6 h): 1.08 ± 0.08 % dose/organ
Heart ([4]; 6 h): 0.22 ± 0.06 % dose/organ
Liver ([4]; 6 h): 5.79 ± 1.24 % dose/organ
Blood ([4]; 24 h): 0.41 ± 0.09 % dose/organ
Brain ([4]; 24 h): 0.91 ± 0.08 % dose/organ
Heart ([4]; 24 h): 0.08 ± 0.01 % dose/organ
Liver ([4]; 24 h): 3.05 ± 0.87 % dose/organ

CN(C)c1ccc(-c2nc3ccc([125I])cc3s2)cc1 [[^125I] Compound 3]
Blood ([4]; 2 min): 15.74 ± 6.06 % dose/organ
Brain ([4]; 2 min): 0.67 ± 0.11 % dose/organ
Heart ([4]; 2 min): 1.79 ± 0.39 % dose/organ
Liver ([4]; 2 min): 31.62 ± 2.38 % dose/organ
Blood ([4]; 30 min): 3.26 ± 0.05 % dose/organ
Brain ([4]; 30 min): 0.97 ± 0.29 % dose/organ
Heart ([4]; 30 min): 0.20 ± 0.01 % dose/organ
Liver ([4]; 30 min): 10.93 ± 2.34 % dose/organ
Blood ([4]; 60 min (1 hr)): 3.79 ± 0.19 % dose/organ
Brain ([4]; 60 min (1 hr)): 1.57 ± 0.24 % dose/organ
Heart ([4]; 60 min (1 hr)): 0.17 ± 0.02 % dose/organ
Liver ([4]; 60 min (1 hr)): 9.21 ± 3.05 % dose/organ
Blood ([4]; 6 h): 1.44 ± 0.05 % dose/organ
Brain ([4]; 6 h): 0.65 ± 0.11 % dose/organ
Heart ([4]; 6 h): 0.05 ± 0.01 % dose/organ
Liver ([4]; 6 h): 1.52 ± 0.30 % dose/organ
Blood ([4]; 24 h): 0.29 ± 0.09 % dose/organ
Brain ([4]; 24 h): 0.04 ± 0.01 % dose/organ
Heart ([4]; 24 h): 0.01 ± 0.00 % dose/organ
Liver ([4]; 24 h): 0.30 ± 0.07 % dose/organ

CN(C)c1ccc(-c2nc3ccc(Br)cc3s2)cc1 [Compound 1, 2-(4′-Dimethylaminophenyl)-6-bromobenzothiazole]
Ki [2]: 0.8 ± 0.3 nM
Ki [3]: 1.9 ± 0.3 nM
